Values quoted from earlier work in US20220356443A1, “PRODUCTION METHOD FOR CEREBRAL ORGANOID” (KEIO UNIVERSITY, priority 2019, published 2022).

System: deposits of amyloid β peptide
Conditions: relative to thioflavin-T; general statement on the staining reagent

For `CNc1ccc(-c2nc3ccccc3s2)cc1` [BTA-1, 2-(4′-methylaminophenyl)benzothiazole], the “affinity to deposits of amyloid β peptide, higher than that of thioflavin-T” value is listed as “about 50 times”.
